In article doi:10.1101/2024.08.13.607785v1 (biorxiv, 2024):
Where two headings read alike, the source gives them in different places.

Experiments:
Experiment in all cases: biochemical
Parameters in all cases: species or system human cell line lysate
[1] = biological target: Isoform 6 of Calcium/calmodulin-dependent protein kinase type II subun ; CAMK2G ; Q13555-6 (Homo sapiens, UniProt Q13555)
[2] = biological target: Serine/threonine-protein kinase MRCK alpha ; CDC42BPA ; Q5VT25 (Homo sapiens, UniProt Q5VT25)
[3] = biological target: RAC-gamma serine/threonine-protein kinase ; AKT3 ; Q9Y243 (Homo sapiens, UniProt Q9Y243)
[4] = biological target: Isoform 4 of LIM domain kinase 1 ; LIMK1 ; P53667-4 (Homo sapiens, UniProt P53667)
[5] = biological target: Phosphatidylinositol 5-phosphate 4-kinase type-2 gamma ; PIP4K2C ; Q8TBX8 (Homo sapiens, UniProt Q8TBX8)
[6] = biological target: Dual specificity protein kinase CLK4 ; CLK4 ; Q9HAZ1 (Homo sapiens, UniProt Q9HAZ1)
[7] = biological target: Isoform 2 of Mitogen-activated protein kinase kinase kinase 20 ; MAP3K20 ; Q9NYL2-2 (Homo sapiens, UniProt Q9NYL2)
[8] = biological target: Mitotic checkpoint serine/threonine-protein kinase BUB1 ; BUB1 ; O43683 (Homo sapiens, UniProt O43683)
[9] = biological target: Inositol polyphosphate multikinase ; IPMK ; Q8NFU5 (Homo sapiens, UniProt Q8NFU5)
[10] = biological target: Glycosaminoglycan xylosylkinase ; FAM20B ; O75063 (Homo sapiens, UniProt O75063)
[11] = biological target: cAMP-dependent protein kinase catalytic subunit PRKX ; PRKX ; P51817 (Homo sapiens, UniProt P51817)
[12] = biological target: Mitogen-activated protein kinase kinase kinase 6 ; MAP3K6 ; O95382 (Homo sapiens, UniProt O95382)
[13] = biological target: Isoform 4 of Serine/threonine-protein kinase PAK 4 ; PAK4 ; O96013-4 (Homo sapiens, UniProt O96013)
[14] = biological target: Tyrosine-protein kinase Lyn ; LYN ; P07948 (Homo sapiens, UniProt P07948)
[15] = biological target: Dual specificity testis-specific protein kinase 1 ; TESK1 ; Q15569 (Homo sapiens, UniProt Q15569)
[16] = biological target: Dual specificity protein kinase CLK2 ; CLK2 ; P49760 (Homo sapiens, UniProt P49760)
[17] = biological target: Tyrosine-protein kinase Fgr ; FGR ; P09769 (Homo sapiens, UniProt P09769)
[18] = biological target: Isoform 1A of Mitogen-activated protein kinase kinase kinase 7 ; MAP3K7 ; O43318-2 (Homo sapiens, UniProt O43318)
[19] = read-out: BAY-1143572 (10 µM) / %Intensity relative to DMSO
[20] = read-out: BAY-1251152 (10 µM) / %Intensity relative to DMSO

Chain of Isoform 4 of Serine/threonine-protein kinase PAK 4 ; PAK4 ; O96013-4 (O96013 whole entry, canonical isoform, one chain of several): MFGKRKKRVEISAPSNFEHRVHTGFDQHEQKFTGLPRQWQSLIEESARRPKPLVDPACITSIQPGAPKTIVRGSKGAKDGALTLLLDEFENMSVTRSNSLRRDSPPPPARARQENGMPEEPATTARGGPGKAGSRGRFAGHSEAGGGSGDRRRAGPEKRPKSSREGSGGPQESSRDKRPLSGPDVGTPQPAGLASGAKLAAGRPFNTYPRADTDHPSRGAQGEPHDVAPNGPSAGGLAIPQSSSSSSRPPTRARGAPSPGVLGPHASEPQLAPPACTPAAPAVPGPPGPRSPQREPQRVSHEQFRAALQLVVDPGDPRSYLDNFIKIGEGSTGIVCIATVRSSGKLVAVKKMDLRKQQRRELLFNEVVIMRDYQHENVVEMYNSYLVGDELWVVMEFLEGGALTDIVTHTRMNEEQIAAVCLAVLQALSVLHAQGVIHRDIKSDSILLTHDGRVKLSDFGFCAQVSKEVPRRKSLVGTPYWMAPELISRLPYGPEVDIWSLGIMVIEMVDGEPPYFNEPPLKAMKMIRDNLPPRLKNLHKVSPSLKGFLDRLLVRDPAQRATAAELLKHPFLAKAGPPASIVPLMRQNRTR
Chain of Serine/threonine-protein kinase MRCK alpha ; CDC42BPA ; Q5VT25 (Q5VT25 whole entry, one chain of several): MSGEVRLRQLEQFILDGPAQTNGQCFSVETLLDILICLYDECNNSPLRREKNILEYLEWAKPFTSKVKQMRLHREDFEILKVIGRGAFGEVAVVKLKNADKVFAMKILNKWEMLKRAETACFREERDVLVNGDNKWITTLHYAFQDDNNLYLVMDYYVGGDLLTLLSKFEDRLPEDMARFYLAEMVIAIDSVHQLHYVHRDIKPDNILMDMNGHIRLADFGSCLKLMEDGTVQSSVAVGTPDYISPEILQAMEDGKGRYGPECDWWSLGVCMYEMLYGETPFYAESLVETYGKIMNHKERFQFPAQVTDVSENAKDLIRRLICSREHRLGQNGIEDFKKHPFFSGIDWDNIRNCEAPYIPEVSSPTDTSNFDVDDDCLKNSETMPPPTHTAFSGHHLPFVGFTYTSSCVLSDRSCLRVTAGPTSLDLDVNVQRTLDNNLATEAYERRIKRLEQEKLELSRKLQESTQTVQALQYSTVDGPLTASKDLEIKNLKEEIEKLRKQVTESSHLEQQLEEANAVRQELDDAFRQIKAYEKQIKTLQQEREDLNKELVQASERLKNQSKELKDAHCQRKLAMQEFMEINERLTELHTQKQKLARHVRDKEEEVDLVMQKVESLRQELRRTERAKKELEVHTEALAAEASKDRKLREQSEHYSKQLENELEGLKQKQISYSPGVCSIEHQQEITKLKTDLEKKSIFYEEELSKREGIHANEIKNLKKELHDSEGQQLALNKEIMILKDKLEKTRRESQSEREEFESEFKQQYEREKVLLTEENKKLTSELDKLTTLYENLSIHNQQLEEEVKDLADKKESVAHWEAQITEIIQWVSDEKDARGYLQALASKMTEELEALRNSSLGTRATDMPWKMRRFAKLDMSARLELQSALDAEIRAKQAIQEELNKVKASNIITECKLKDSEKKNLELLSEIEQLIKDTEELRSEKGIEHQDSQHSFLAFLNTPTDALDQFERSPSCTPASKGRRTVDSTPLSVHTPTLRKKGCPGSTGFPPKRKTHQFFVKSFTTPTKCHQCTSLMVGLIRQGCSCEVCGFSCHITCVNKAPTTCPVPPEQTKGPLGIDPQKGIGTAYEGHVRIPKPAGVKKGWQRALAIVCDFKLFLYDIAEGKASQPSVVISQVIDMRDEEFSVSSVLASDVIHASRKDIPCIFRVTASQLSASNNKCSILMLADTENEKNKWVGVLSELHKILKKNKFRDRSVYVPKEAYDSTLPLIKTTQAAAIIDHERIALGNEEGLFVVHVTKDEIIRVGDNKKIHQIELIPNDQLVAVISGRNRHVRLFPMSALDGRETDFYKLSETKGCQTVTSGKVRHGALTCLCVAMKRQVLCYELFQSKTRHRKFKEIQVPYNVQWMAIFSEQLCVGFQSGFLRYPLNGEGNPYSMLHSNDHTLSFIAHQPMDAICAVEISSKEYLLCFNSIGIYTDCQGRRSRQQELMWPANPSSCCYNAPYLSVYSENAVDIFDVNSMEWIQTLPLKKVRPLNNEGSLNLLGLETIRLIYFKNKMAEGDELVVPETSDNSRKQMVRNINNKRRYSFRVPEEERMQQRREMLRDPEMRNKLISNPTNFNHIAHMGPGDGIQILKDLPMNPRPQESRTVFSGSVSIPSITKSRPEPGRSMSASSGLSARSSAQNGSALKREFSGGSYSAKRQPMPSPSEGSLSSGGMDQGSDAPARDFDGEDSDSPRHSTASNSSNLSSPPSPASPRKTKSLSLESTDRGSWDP
Chain of Mitogen-activated protein kinase kinase kinase 6 ; MAP3K6 ; O95382 (O95382 whole entry, canonical isoform): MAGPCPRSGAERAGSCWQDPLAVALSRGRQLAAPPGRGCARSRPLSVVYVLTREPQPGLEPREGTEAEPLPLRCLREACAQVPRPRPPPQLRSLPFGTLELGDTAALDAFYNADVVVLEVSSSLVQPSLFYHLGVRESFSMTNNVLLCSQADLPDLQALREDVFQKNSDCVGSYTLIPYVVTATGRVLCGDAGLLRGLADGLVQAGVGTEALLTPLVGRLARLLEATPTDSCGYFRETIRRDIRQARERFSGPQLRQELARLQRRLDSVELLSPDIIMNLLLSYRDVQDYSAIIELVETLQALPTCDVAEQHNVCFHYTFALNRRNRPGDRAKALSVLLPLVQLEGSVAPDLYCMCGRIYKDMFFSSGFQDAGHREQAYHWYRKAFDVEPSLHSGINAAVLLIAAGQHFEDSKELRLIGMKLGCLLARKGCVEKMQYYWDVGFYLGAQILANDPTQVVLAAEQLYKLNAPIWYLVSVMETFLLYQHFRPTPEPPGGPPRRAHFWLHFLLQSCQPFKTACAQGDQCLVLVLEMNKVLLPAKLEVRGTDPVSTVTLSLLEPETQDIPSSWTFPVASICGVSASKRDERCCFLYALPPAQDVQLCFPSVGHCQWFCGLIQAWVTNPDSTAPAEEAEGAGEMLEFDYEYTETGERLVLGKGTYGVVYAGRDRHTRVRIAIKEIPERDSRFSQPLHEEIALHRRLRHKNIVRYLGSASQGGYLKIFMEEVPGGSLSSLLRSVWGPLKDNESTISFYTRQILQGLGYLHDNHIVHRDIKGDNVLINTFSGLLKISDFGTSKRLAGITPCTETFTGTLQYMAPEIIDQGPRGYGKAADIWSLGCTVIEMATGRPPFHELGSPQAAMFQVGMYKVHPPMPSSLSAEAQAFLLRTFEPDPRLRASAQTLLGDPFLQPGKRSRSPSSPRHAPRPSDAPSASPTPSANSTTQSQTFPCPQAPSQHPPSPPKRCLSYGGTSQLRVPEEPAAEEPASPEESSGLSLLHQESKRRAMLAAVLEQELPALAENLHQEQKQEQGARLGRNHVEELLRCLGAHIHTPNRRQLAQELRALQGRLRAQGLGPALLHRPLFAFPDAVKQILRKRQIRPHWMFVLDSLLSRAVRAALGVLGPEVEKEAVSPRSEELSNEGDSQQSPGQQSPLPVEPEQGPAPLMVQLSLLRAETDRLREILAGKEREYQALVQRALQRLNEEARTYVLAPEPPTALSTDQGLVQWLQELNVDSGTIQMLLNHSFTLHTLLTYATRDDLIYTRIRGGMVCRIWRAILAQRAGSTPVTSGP
Chain of cAMP-dependent protein kinase catalytic subunit PRKX ; PRKX ; P51817 (P51817 whole entry, one chain of several): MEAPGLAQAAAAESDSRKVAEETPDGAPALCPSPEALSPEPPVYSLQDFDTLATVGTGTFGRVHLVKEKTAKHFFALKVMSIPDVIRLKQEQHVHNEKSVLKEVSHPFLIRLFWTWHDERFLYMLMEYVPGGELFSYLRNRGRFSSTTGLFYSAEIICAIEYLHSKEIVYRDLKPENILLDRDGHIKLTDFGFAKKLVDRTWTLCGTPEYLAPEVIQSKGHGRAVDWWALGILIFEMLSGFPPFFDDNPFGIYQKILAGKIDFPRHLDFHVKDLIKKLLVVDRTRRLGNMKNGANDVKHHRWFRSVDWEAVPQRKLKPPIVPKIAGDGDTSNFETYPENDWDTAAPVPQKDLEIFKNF
Chain of Isoform 1A of Mitogen-activated protein kinase kinase kinase 7 ; MAP3K7 ; O43318-2 (O43318 whole entry, canonical isoform): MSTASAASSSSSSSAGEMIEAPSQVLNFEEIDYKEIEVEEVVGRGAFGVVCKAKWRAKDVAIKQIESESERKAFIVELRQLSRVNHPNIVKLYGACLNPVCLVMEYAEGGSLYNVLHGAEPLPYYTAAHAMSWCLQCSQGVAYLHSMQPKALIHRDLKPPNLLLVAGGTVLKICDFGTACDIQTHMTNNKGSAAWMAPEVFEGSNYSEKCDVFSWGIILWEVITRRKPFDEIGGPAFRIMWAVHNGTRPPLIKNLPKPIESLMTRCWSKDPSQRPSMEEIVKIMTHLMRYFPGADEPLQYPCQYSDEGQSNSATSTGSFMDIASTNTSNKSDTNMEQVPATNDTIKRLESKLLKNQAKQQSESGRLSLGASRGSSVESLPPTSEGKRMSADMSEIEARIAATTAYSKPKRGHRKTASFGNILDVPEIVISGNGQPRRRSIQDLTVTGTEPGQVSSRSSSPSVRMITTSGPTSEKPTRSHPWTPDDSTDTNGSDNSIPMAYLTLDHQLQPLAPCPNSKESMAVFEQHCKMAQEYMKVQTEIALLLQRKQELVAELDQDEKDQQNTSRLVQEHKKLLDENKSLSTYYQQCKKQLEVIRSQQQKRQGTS
Chain of Dual specificity protein kinase CLK4 ; CLK4 ; Q9HAZ1 (Q9HAZ1 whole entry, canonical isoform): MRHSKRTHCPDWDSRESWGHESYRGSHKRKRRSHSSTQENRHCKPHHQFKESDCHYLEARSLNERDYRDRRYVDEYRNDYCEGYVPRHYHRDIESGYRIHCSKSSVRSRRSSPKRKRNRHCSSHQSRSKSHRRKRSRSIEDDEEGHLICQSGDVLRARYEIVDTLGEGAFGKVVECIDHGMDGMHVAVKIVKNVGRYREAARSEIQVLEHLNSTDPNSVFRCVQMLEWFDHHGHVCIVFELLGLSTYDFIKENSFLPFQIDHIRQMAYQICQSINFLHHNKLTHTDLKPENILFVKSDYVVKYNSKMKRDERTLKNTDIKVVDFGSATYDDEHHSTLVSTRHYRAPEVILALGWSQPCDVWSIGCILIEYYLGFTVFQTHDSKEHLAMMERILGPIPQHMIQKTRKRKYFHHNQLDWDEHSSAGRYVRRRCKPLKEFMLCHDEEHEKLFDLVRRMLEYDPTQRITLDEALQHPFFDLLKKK

Work on COc1cc(F)ccc1-c1ncnc(Nc2cccc(C[S@](C)(=N)=O)c2)n1 [BAY-1143572] yielded a remaining activity at 10 µM [1, 19] of 105%, a remaining activity at 10 µM [2, 19] of 97.1% and a remaining activity at 10 µM [3, 19] of 125%. It also gave a remaining activity at 10 µM [4, 19] of 79%, a remaining activity at 10 µM [5, 19] of 110% and a remaining activity at 10 µM [6, 19] of 141%. The remaining activity at 10 µM [7, 19] was 65.2%, the remaining activity at 10 µM [8, 19] was 109% and the remaining activity at 10 µM [9, 19] was 107%. It also gave a remaining activity at 10 µM [10, 19] of 141%, a remaining activity at 10 µM [11, 19] of 152% and a remaining activity at 10 µM [12, 19] of 103%. It also gave a remaining activity at 10 µM [13, 19] of 91.5%, a remaining activity at 10 µM [14, 19] of 82% and a remaining activity at 10 µM [15, 19] of 109%. The remaining activity at 10 µM [16, 19] was 139%, the remaining activity at 10 µM [17, 19] was 96.5% and the remaining activity at 10 µM [18, 19] was 116%.

COc1cc(F)ccc1-c1cc(Nc2cc(CS(C)(=N)=O)ccn2)ncc1F (stereo not drawn) [BAY-1251152] showed a remaining activity at 10 µM [1, 20] of 94.9%, a remaining activity at 10 µM [2, 20] of 107% and a remaining activity at 10 µM [3, 20] of 127%. The remaining activity at 10 µM [4, 20] was 106%, the remaining activity at 10 µM [5, 20] was 107% and the remaining activity at 10 µM [6, 20] was 133%. For the same compound, the remaining activity at 10 µM [7, 20] was 81.6%, the remaining activity at 10 µM [8, 20] was 106% and the remaining activity at 10 µM [9, 20] was 96.1%. The remaining activity at 10 µM [10, 20] was 123%, the remaining activity at 10 µM [11, 20] was 140% and the remaining activity at 10 µM [12, 20] was 103%. For the same compound, the remaining activity at 10 µM [13, 20] was 95.9%, the remaining activity at 10 µM [14, 20] was 79.4% and the remaining activity at 10 µM [15, 20] was 104%. It also gave a remaining activity at 10 µM [16, 20] of 112%, a remaining activity at 10 µM [17, 20] of 97.1% and a remaining activity at 10 µM [18, 20] of 113%.
